How the values were obtained:
[1] = test system: MOLM-14 (acute myeloid leukemia) cell line; assay: CellTiter-Glo luminescent cell viability assay, MOLM-14; format: cell-based, human; details: Homo sapiens; for viability at 4 µM: MOLM-14, compound at 4 μM; for viability at 4 µM / viability at 10 µM: 72 h; for viability at 10 µM: MOLM-14, compound at 10 μM; for EC50: MOLM-14 cell line, 72 h incubation, CellTiter-Glo, read-out: EC50, growth inhibition of MOLM-14
In short: (§1)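 72 h compound exposure, 37 °C, 5% CO2, 10% FBS medium; ATP luminescence read after 30 min RT equilibration. Viability as % of H2O/DMSO diluent control; EC50 = dose giving 50% of control signal. Duplicate points minimum.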

[2] = test system: A375 (malignant melanoma) cell line; assay: CellTiter-Glo luminescent cell viability assay, A375; format: cell-based, human; details: Homo sapiens, A-375; for viability at 4 µM: A375, compound at 4 μM; for viability at 4 µM / viability at 10 µM: 72 h; for viability at 10 µM: A375, compound at 10 μM; for EC50: A375 cell line, 72 h incubation, CellTiter-Glo, read-out: EC50, growth inhibition of A375
In short: (§2)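 Luminescent signal, normalised to diluent-treated cultures, defines % viability; EC50 is the concentration lowering it to 50%. Cells had been exposed to compound for 72 h at 37 °C in medium with 10% FBS, at a constant H2O or DMSO percentage.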

[3] = test system: HCT-116 (colorectal carcinoma) cell line; assay: CellTiter-Glo luminescent cell viability assay, HCT-116; format: cell-based, human; details: Homo sapiens; for viability at 4 µM: HCT-116, compound at 4 μM; for viability at 4 µM / viability at 10 µM: 72 h; for viability at 10 µM: HCT-116, compound at 10 μM; for EC50: HCT-116 cell line, 72 h incubation, CellTiter-Glo, read-out: EC50, growth inhibition of HCT-116
In short: as §2

[4] = test system: Huh7 (hepatocellular carcinoma) cell line; assay: CellTiter-Glo luminescent cell viability assay, Huh7; format: cell-based, human; details: Homo sapiens, Huh-7; for viability at 4 µM: Huh7, compound at 4 μM; for viability at 4 µM / viability at 10 µM: 72 h; for viability at 10 µM: Huh7, compound at 10 μM; for EC50: Huh7 cell line, 72 h incubation, CellTiter-Glo, read-out: EC50, growth inhibition of Huh7
In short: as §1

[5] = test system: 786-O (renal adenocarcinoma) cell line; assay: CellTiter-Glo luminescent cell viability assay, 786-O; format: cell-based, human; details: Homo sapiens, 786-0; for EC50: 786-O cell line, 72 h incubation, CellTiter-Glo, read-out: EC50, growth inhibition of 786-O; for viability at 4 µM / viability at 10 µM: 786-O, 72 h; for viability at 4 µM: compound at 4 μM; for viability at 10 µM: compound at 10 μM
In short: as §2

[6] = test system: HepG2 (hepatocellular carcinoma) cell line; assay: CellTiter-Glo luminescent cell viability assay, HepG2; format: cell-based, human; details: Homo sapiens; for viability at 4 µM / viability at 10 µM: HepG2, HepG, 72 h; for viability at 4 µM: compound at 4 μM; for viability at 10 µM: compound at 10 μM; for EC50: HepG2 cell line, 72 h incubation, CellTiter-Glo, read-out: EC50, growth inhibition of HepG2
In short: as §1

[7] = test system: PANC-1 (prancreatic carcinoma) cell line; assay: CellTiter-Glo luminescent cell viability assay, PANC-1; format: cell-based; details: Homo sapiens; for viability at 4 µM: PANC-1, 4 μM; for viability at 4 µM / viability at 10 µM: 72 h, % of signal of diluent-treated cultures; for viability at 10 µM: PANC-1, 10 μM; for EC50: PANC-1 cell line, 72 h incubation, CellTiter-Glo, read-out: EC50 (growth inhibition assay of PANC-1 cell line)
In short: as §1

CN1CCN(C2CCN(c3c(C#N)c(NCc4ccc(Cl)cc4)nc4ccccc34)CC2)CC1 [Compound 3188CN, 2-(4-chlorobenzylamino)-3-cyano-4-[4-(4-methylpiperazin-1-yl)piperidin-1-yl]quinoline]
viability at 4 µM [1]: 108%
viability at 10 µM [1]: 0.7%
EC50 [1]: 0.5 to 5 µM
viability at 4 µM [2]: 52.8%
viability at 10 µM [2]: 0.4%
EC50 [2]: 0.5 to 5 µM
viability at 4 µM [3]: 42.9%
viability at 10 µM [3]: 0.5%
EC50 [3]: 0.5 to 5 µM
viability at 4 µM [4]: 85.2%
viability at 10 µM [4]: 0.6%
EC50 [4]: 0.5 to 5 µM
EC50 [5]: 0.5 to 5 µM
viability at 4 µM [5]: 64%
viability at 10 µM [5]: 0.5%
viability at 4 µM [6]: 82.7%
viability at 10 µM [6]: 0.6%
EC50 [6]: 0.5 to 5 µM
viability at 4 µM [7]: 91.6%
viability at 10 µM [7]: 3.5%
EC50 [7]: 5 to 10 µM

N#Cc1c(NCc2ccc(Cl)cc2)nc2ccccc2c1N1CCC(N)C1 (centres unmarked) [Compound 3190CN, 2-(4-chloro-benzylamino)-3-cyano-4-[3-amino-pyrrolidin-1-yl]quinoline]
viability at 4 µM [1]: 78.1%
viability at 10 µM [1]: 2.1%
EC50 [1]: 5 to 10 µM
viability at 4 µM [2]: 87.3%
viability at 10 µM [2]: 0.8%
EC50 [2]: 5 to 10 µM
viability at 4 µM [3]: 75.2%
viability at 10 µM [3]: 0.4%
EC50 [3]: 5 to 10 µM
viability at 4 µM [4]: 92.7%
viability at 10 µM [4]: 1.3%
EC50 [4]: 5 to 10 µM
EC50 [5]: 5 to 10 µM
viability at 4 µM [5]: 90.6%
viability at 10 µM [5]: 1.6%
viability at 4 µM [6]: 95.5%
viability at 10 µM [6]: 16%
EC50 [6]: 5 to 10 µM
viability at 4 µM [7]: 93.7%
viability at 10 µM [7]: 56.1%

CNC1CCN(c2c(C#N)c(NCc3ccc(Cl)cc3)nc3ccccc23)C1 (centres unmarked) [Compound 3192CN, 2-(4-chloro-benzylamino)-3-cyano-4-[3-(methylamino)pyrrolidin-1-y]quinoline]
viability at 4 µM [1]: 0.6%
viability at 10 µM [1]: 0.3%
EC50 [1]: 5 to 10 µM
viability at 4 µM [2]: 104%
viability at 10 µM [2]: 0.4%
EC50 [2]: 0.5 to 5 µM
viability at 4 µM [3]: 57.3%
viability at 10 µM [3]: 0.2%
EC50 [3]: 0.5 to 5 µM
viability at 4 µM [4]: 78%
viability at 10 µM [4]: 0.4%
EC50 [4]: 0.5 to 5 µM
EC50 [5]: 0.5 to 5 µM
viability at 4 µM [5]: 0.4%
viability at 10 µM [5]: 0.2%
viability at 4 µM [6]: 59.5%
viability at 10 µM [6]: 0.4%
EC50 [6]: 0.5 to 5 µM
viability at 4 µM [7]: 77.1%
viability at 10 µM [7]: 1.5%
EC50 [7]: 5 to 10 µM

CN1CCN(C2CCN(c3c(C#N)c(NCc4ccc(Cl)cc4)nc4ccccc34)C2)CC1 (centres unmarked) [Compound 3200CN, 2-(4-chloro-benzylamino)-3-cyano-4-[3-(4-methylpiper-azin-1-yl)pyrro-lidin-1-yl] quinoline]
viability at 4 µM [1]: 97.1%
viability at 10 µM [1]: 0.4%
EC50 [1]: 5 to 10 µM
viability at 4 µM [2]: 47.3%
viability at 10 µM [2]: 0.3%
EC50 [2]: 5 to 10 µM
viability at 4 µM [3]: 35.1%
viability at 10 µM [3]: 0.4%
EC50 [3]: 5 to 10 µM
viability at 4 µM [4]: 80.6%
viability at 10 µM [4]: 0.4%
EC50 [4]: 5 to 10 µM
EC50 [5]: 5 to 10 µM
viability at 4 µM [5]: 41.7%
viability at 10 µM [5]: 0.4%
viability at 4 µM [6]: 71.8%
viability at 10 µM [6]: 0.3%
EC50 [6]: 5 to 10 µM
viability at 4 µM [7]: 90.2%
viability at 10 µM [7]: 38.4%

CN(C)C1CCN(c2c(C#N)c(NCc3ccc(Cl)cc3)nc3ccccc23)C1 (centres unmarked) [Compound 3202CN, 2-(4-chloro-benzylamino)-3-cyano-4-[3-(dimethylamino)pyrrolidin-1-yl]quinoline]
viability at 4 µM [1]: 98.7%
viability at 10 µM [1]: 82.6%
viability at 4 µM [2]: 84.5%
viability at 10 µM [2]: 70.5%
viability at 4 µM [3]: 93.7%
viability at 10 µM [3]: 62.4%
viability at 4 µM [4]: 91.1%
viability at 10 µM [4]: 61.5%
viability at 4 µM [5]: 92.9%
viability at 10 µM [5]: 74.7%
viability at 4 µM [6]: 104%
viability at 10 µM [6]: 81%
viability at 4 µM [7]: 96.1%
viability at 10 µM [7]: 81.5%

CC(C)(C)NC1CCN(c2c(C#N)c(Nc3ccccc3)nc3ccccc23)CC1 [Compound 3246CN, 2-(phenylamino)-3-cyano-4-[4-(tert-butylamino)piperidin-1-yl]quinoline]
viability at 4 µM [1]: 91.9%
viability at 10 µM [1]: 3.1%
EC50 [1]: 5 to 10 µM
viability at 4 µM [2]: 66.2%
viability at 10 µM [2]: 0.2%
EC50 [2]: 0.5 to 5 µM
viability at 4 µM [3]: 3%
viability at 10 µM [3]: 0.1%
EC50 [3]: 0.5 to 5 µM
viability at 4 µM [4]: 67.7%
viability at 10 µM [4]: 0.6%
EC50 [4]: 0.5 to 5 µM
EC50 [5]: 5 to 10 µM
viability at 4 µM [5]: 59%
viability at 10 µM [5]: 0.2%
viability at 4 µM [6]: 53.2%
viability at 10 µM [6]: 0.2%
EC50 [6]: 0.5 to 5 µM
viability at 4 µM [7]: 88.2%
viability at 10 µM [7]: 38.8%
EC50 [7]: 5 to 10 µM

Cc1cc(Nc2nc3ccccc3c(N3CCC(NC(C)(C)C)CC3)c2C#N)ccc1F [Compound 3250CN, 2-(3-methyl-4-fluorophenylamino)-3-cyano-4-[4-(tert-butylamino)piperidin-1-yl]quinoline]
viability at 4 µM [1]: 87.5%
viability at 10 µM [1]: 0.6%
EC50 [1]: 5 to 10 µM
viability at 4 µM [2]: 0.7%
viability at 10 µM [2]: 0.3%
EC50 [2]: 0.5 to 5 µM
viability at 4 µM [3]: 0.2%
viability at 10 µM [3]: 0.1%
EC50 [3]: 0.5 to 5 µM
viability at 4 µM [4]: 67%
viability at 10 µM [4]: 0.5%
EC50 [4]: 5 to 10 µM
EC50 [5]: 0.5 to 5 µM
viability at 4 µM [5]: 30.3%
viability at 10 µM [5]: 0.4%
viability at 4 µM [6]: 71%
viability at 10 µM [6]: 0.5%
EC50 [6]: 0.5 to 5 µM
viability at 4 µM [7]: 94.7%
viability at 10 µM [7]: 13.1%
EC50 [7]: 5 to 10 µM

COc1ccc(Nc2nc3ccccc3c(N3CCC(NC(C)(C)C)CC3)c2C#N)cc1 [Compound 3252CN, 2-(4-methoxyphenylamino)-3-cyano-4-[4-(tert-butylamino)piperidin-1-yl]quinoline]
viability at 4 µM [1]: 80.2%
viability at 10 µM [1]: 0.7%
EC50 [1]: 5 to 10 µM
viability at 4 µM [2]: 20%
viability at 10 µM [2]: 0.2%
EC50 [2]: 0.5 to 5 µM
viability at 4 µM [3]: 2.5%
viability at 10 µM [3]: 0.2%
EC50 [3]: 0.5 to 5 µM
viability at 4 µM [4]: 80.6%
viability at 10 µM [4]: 2.9%
EC50 [4]: 5 to 10 µM
EC50 [5]: 0.5 to 5 µM
viability at 4 µM [5]: 74.2%
viability at 10 µM [5]: 0.3%
viability at 4 µM [6]: 68.4%
viability at 10 µM [6]: 0.3%
EC50 [6]: 5 to 10 µM
viability at 4 µM [7]: 94.7%
viability at 10 µM [7]: 47.9%
EC50 [7]: 5 to 10 µM

CC(C)(C)NC1CCN(c2c(C#N)c(Nc3ccccc3C(F)(F)F)nc3ccccc23)CC1 [Compound 3254CN, 2-(2-trifluoromethylphenylamino)-3-cyano-4-[4-(tert-butylamino)piperidin-1-yl]quinoline]
viability at 4 µM [1]: 81.4%
viability at 10 µM [1]: 0.3%
EC50 [1]: 5 to 10 µM
viability at 4 µM [2]: 0.4%
viability at 10 µM [2]: 0.2%
EC50 [2]: 0.5 to 5 µM
viability at 4 µM [3]: 0.3%
viability at 10 µM [3]: 0.2%
EC50 [3]: 0.5 to 5 µM
viability at 4 µM [4]: 34.2%
viability at 10 µM [4]: 0.3%
EC50 [4]: 0.5 to 5 µM
EC50 [5]: 0.5 to 5 µM
viability at 4 µM [5]: 6.3%
viability at 10 µM [5]: 0.3%
viability at 4 µM [6]: 6.9%
viability at 10 µM [6]: 0.2%
EC50 [6]: 0.5 to 5 µM
viability at 4 µM [7]: 78.4%
viability at 10 µM [7]: 3%
EC50 [7]: 5 to 10 µM

CC(C)(C)NC1CCN(c2c(C#N)c(Nc3cccc(C(F)(F)F)c3)nc3ccccc23)CC1 [Compound 3256CN, 2-(3-trifluoromethylphenylamino)-3-cyano-4-[4-(tert-butylamino)piperidin-1-yl]quinoline]
viability at 4 µM [1]: 91.1%
viability at 10 µM [1]: 85.6%
viability at 4 µM [2]: 55.2%
viability at 10 µM [2]: 2.4%
viability at 4 µM [3]: 3.6%
viability at 10 µM [3]: 0.2%
viability at 4 µM [4]: 78.3%
viability at 10 µM [4]: 29.3%
viability at 4 µM [5]: 61.8%
viability at 10 µM [5]: 13.7%
viability at 4 µM [6]: 82.9%
viability at 10 µM [6]: 56.6%
viability at 4 µM [7]: 104%
viability at 10 µM [7]: 81.8%
